Measurements reported in patent US5011838A, “Pharmacologically active 2-substituted 3-(2-ethoxyethyl) imidazo[4,5-b]pyridines and pharmaceutical compositions containing them” (Dompe Farmaceutici S.p.A., priority 1989, dated 1991).

Columns and labels:
[1] = test system: mortality induced by histamine; experiment: Effect on the mortality induced by histamine; format: in vivo, male albino guinea pigs (Dunkin-Hartley); conditions: Cavia porcellus, po, 1 h; p.o., 60 min before 1.25 mg/kg i.v. histamine dihydrochloride; guinea pig; read-out: Mortality induced by hystamine ED50 p.o.
Procedure: The method described by Romer D. et al. (Med. Welt. 17,791, 1966) was followed and the tests were carried out on male albino guinea pigs (Dunkin-Hartley), weighing 350 to 450 g which were kept in cages with a grid floor, on an empty stomach for 24 hours with water ad libitum. The compounds under examination have been orally administered to the animals, dissolved in 0.5% carboxymethylcellulose, 60 minutes before intravenous administration of 1.25 mg/kg of histamine dihydrochloride in saline solution. In the control animals, treated with carboxymethylcellulose, the intravenous administration of histamine dihydrochloride induced a 100% mortality.
It has been evaluated ED50, which corresponds to the amount of the compound able to inhibit to 50% the mortality induced by histamine: estimation of ED50 has been made applying the `probit` method (Finney D. J. "Statistical method in biological assay", pg 512,1957).

[2] = test system: mortality induced by compound 48/80; experiment: Mortality inhibition by compound 48/80; format: in vivo, Sprague Dawley Nos male rats; conditions: ip, half an hour before 2 mg/kg i.v. compound 48/80; rat; 4 hours observation
Procedure: For evaluating the protection to the mortality induced by compound 48/80 administration the method described by C. J. E. Niemegeers et al. (Arch. Int. Pharmacodyn, 234,164,1978) was followed.
Sprague Dawley Nos male rats (Nossan, Correzzana, Milano) weighing 140 to 150 g, divided into groups of 10 animals each, on an empty stomach for 24 hours with water "ad libitum", were kept in cages with a grid floor, and treated intravenously with 2 mg/kg of compound 48/80 (1 ml/rat).
The animals were kept under observation for 4 hours taking note of their mortality. The results were expressed as the number of animals dead with respect to the number of treated animals. Compounds under examination or the carrier were administered half an hour before administration of compound 48/80 by intraperitoneal route, dissolved in H2 O (5 ml/kg). The experimental data were submitted to the variance analysis and to subsequent multiple comparisons according to Dunnet (D. J. Finney, in "Statistical Methods in Biological assay", Ed. L. Griffin and Co. Ltd., pag. 152,1957, Edition Ames Iowa, 1971).

[3] = Evaluation of the lethal dose50 (LD50), acute toxicity; conditions: in vivo, ip; mouse; 14 days observation
Procedure: Swiss Nos (Nossan, Correzzana, Milano) mice, weighing 18 to 20 g each, on an empty stomach for 18 hours with water "ad libitum" and kept in cages with grid floor, were used. The animals, divided into groups of 10 animals each, (5M+5F) were treated intraperitoneally (10 ml/kg) with the compounds under examination dissolved in water or suspended in 0.5% carboxymethylcellulose. The animals were kept in the cages and the mortality occurred within the following 6 hours was noted down. At the expiring of the 6 hours the animals were allowed to eat up to the end of the experimentation which lasted 14 days. During this period all the toxic symptoms and the mortality occuring were noted.
The animals which died during the test period and those which were sacrificed at the end of the same, underwent autopsy for a macroscopic examination of their main organs. The experimental data were statistically compared with the X^2 method and LD50 was extrapolated by the `probit` method.

**Q.** Which ED50 [1] does the source give for CCOCCn1c(CCCN2CCOCC2)nc2cccnc21.O=C(O)/C=C/C(=O)O.O=C(O)/C=C/C(=O)O [Example 9, 3-(2-Ethoxyethyl)-2-[3-(morpholin-4-yl)propyl]-3H-imidazo [4,5-b] pyridine difumarate] here?
**A.** 0.003 mg/kg

**Q.** And the ED50 [2]?
**A.** 0.5 mg/kg

**Q.** What about the LD50 at 336 h [3] of the same molecule?
**A.** > 100 mg/kg

**Q.** Which ED50 [1] does the source give for CC(C)(C)c1ccc(C(O)CCCN2CCC(C(O)(c3ccccc3)c3ccccc3)CC2)cc1 (stereo not drawn) [Terfenadine, reference compound] here?
**A.** 0.436 mg/kg

**Q.** And the ED50 [2]?
**A.** 1.09 mg/kg

**Q.** What about the LD50 at 336 h [3] of the same molecule?
**A.** 620 mg/kg

**Q.** With CCOCCn1c(CCCN(C)C)nc2cccnc21 [Example 1, 3-(2-Ethoxyethyl)-2-(3-dimethylaminopropyl)-3H-imidazo [4,5-b] pyridine] as the molecule, how does the ED50 [1] read?
**A.** 0.03 mg/kg

**Q.** What about the ED50 [2] of the same molecule?
**A.** 0.5 mg/kg

**Q.** And the LD50 at 336 h [3]?
**A.** > 100 mg/kg

**Q.** With CCOCCn1c(CCN(C)C)nc2cccnc21 [Example 2, 3-(2-Ethoxyethyl)-2-(2-dimethylaminoethyl)-3 H-imidazo [4,5-b] pyridine] as the molecule, how does the ED50 [1] read?
**A.** 0.025 mg/kg

**Q.** What about the ED50 [2] of the same molecule?
**A.** 0.3 mg/kg

**Q.** And the LD50 at 336 h [3]?
**A.** > 100 mg/kg
